Measurements: patent publication US4434175A, “Nonsteroidal compounds as anti-inflammatory and analgesic agents” (Merck & Co., Inc., priority 1982, dated 1984)

Tests used:
[1] = test system: edema induced by carragenin in rat's right hind paw; test: rat foot edema assay (carragenin-induced, C.F.E.); assay type: in vivo, rat (male, Sprague Dawley)
Procedure: The rat foot edema assay, by which anti-inflammatory activity is determined, is based on the ability of the compounds of Formula I to inhibit the edema induced by injection of an inflammatory (phlogistic) agent into the tissue of a rat's foot. Groups of six male rats (Sprague Dawley strain, 150±30 g each) are given orally the compounds to be tested one hour before 0.1 ml of 1% suspension of carragenin in methocel (0.5%) is injected into the plantar surface of the rat's right hind paw. Immediately and again three hours later, the foot volume is measured and recorded. The difference between the […] and final volumes is a measurement of the edema produced. For comparative purposes the activity of the compound to be tested is measured against that produced by the known anti-inflammatory agent, e.g. Zomepirac. The activity measured is also corrected by the swelling, if any, produced by the "control" rats which receive only the methocel solution.

gastric mucosa = test: Gastric Hemorrhage Lesion Formation Assay (GHLF) / gastric irritation; assay type: in vivo, rat (Sprague-Dawley, male); details: for Ave. No. of lesions per Animal / Animal with Lesion: oral, fasted, 4 h; for Animal with Lesion: animals with at least one lesion/group
Procedure: In other words, the novel compounds of the present invention are less toxic in terms of gastric irritation. The GHLF test is conducted according to the following procedure:
Rats (Sprague-Dawley, Males, 120-180 gm) were fasted overnight and dosed orally with drug suspended in 0.5% methylcellulose. The drug concentration was adjusted so that each animal received 1.0 ml/100 gm body weight. Four hours later the animals were killed by asphixiation in carbon dioxide, the stomachs removed, cut open and everted. The mucosal lining was washed and examined under 3X magnification. The lesions are indentified as perforations of the gastric mucosa many of which perforate right through the wall of the stomach.
The results are expressed in two ways, the average number of lesions per stomach, and the number of animals in the group showing at least one lesion.

[2] = Rattus norvegicus, oral, one hour before carragenin, foot volume 3 h later

Row | SMILES | inhibition in vivo at 3 mg/kg [1, 2] [%] | inhibition in vivo at 10 mg/kg [1, 2] [%] | inhibition in vivo at 30 mg/kg [1, 2] [%] | Ave. No. of lesions per Animal (gastric mucosa; 90 mg/kg) | Animal with Lesion (gastric mucosa; 90 mg/kg) | Ave. No. of lesions per Animal (gastric mucosa; 10 mg/kg) | Animal with Lesion (gastric mucosa; 10 mg/kg) | Ave. No. of lesions per Animal (gastric mucosa; 30 mg/kg) | Animal with Lesion (gastric mucosa; 30 mg/kg) | other results
1 | COc1cc(CC(=O)O)n(C)c1C(=O)c1ccc(Cl)n1C | 30 | 35 | 41 | – | – | – | – | – | – | –
2 | Cc1cc(CC(=O)O)n(C)c1C(=O)c1cccn1C | – | – | 26 | – | – | – | – | – | – | –
3 | Cc1cc(CC(=O)O)n(C)c1C(=O)c1ccc(Cl)n1C | – | 30 | 41 | – | – | – | – | – | – | –
4 | CSc1cc(C(=O)c2c(C)cc(CC(=O)O)n2C)n(C)c1 | – | 33 | 53 | – | – | – | – | – | – | –
5 | Cc1cc(CC(=O)O)n(C)c1C(=O)c1ccccn1 | – | – | – | 0 | 0/6 | – | – | – | – | –
6 | COc1cc(CC(=O)O)n(C)c1C(=O)c1ccc(F)cc1F [2,4-F2C6 H5; OCH3; CH3, 5-(o-p-difluorobenzoyl)-4-methoxy-1-methylpyrrole-2-acetic acid] | 29 | 35 | 38 | – | – | – | – | – | – | –
7 | COc1cc(CC(=O)O)n(C)c1C(=O)c1ccc(C(F)(F)F)cc1 [4-CF3C6 H5; OCH3; CH3, 5-(p-trifluoromethylbenzoyl)-4-methoxy-1-methylpyrrole-2-acetic acid] | 24 | 48 | – | 0 | 0/6 | 0 | 0/6 | 0 | 0/6 | inhibition in vivo at 20 mg/kg [1, 2]: 57%; Ave. No. of lesions per Animal (gastric mucosa; 150 mg/kg): 1; Animal with Lesion (gastric mucosa; 150 mg/kg): 1/6
8 | COc1cc(CC(=O)O)n(C)c1C(=O)c1ccc(SC)cc1 [4-CH3 SC6 H5; CH3 O; CH3, 5-(p-methylthiobenzoyl)-4-methoxy-1-methylpyrrole-2-acetic acid] | 45 | – | – | – | – | 0.5 | 3/6 | 0.8 | 2/6 | inhibition in vivo at 15 mg/kg ([1]; Rattus norvegicus, 15 mg/kg, oral, one hour before carragenin, foot volume 3 h later): 64%
9 | COc1cc(CC(=O)O)n(C)c1C(=O)c1ccc([S+](C)[O-])cc1 (stereo not shown) [4-CH3 SOC6 H5; CH3 O; CH3, 4-methoxy-5-(p-methylsulfinylbenzoyl)-1-methylpyrrole-2-acetic acid] | – | 29 | 23 | – | – | – | – | – | – | –
10 | COc1cc(CC(=O)O)n(C)c1C(=O)c1ccc(C)cc1 [4-CH3C6 H5; OCH3; CH3, 5-(p-methylbenzoyl)-4-methoxy-1-methylpyrrole-2-acetic acid] | – | – | – | 0 | 0/6 | 0 | 0/6 | 0 | 0/6 | inhibition in vivo at 5 mg/kg ([1]; Rattus norvegicus, 5 mg/kg, oral, one hour before carragenin, foot volume 3 h later): 38%; inhibition in vivo at 20 mg/kg [1, 2]: 38%
11 | COc1cc(CC(=O)O)n(C)c1C(=O)c1ccc(Cl)cc1 [4-ClC6 H5; CH3 O; CH3, 5-(p-chlorobenzoyl)-4-methoxy-1-methylpyrrole-2-acetic acid] | 48 | 51 | 70 | 2 | 3/5 | 0 | 0/5 | 0 | 0/5 | inhibition in vivo at 20 mg/kg [1, 2]: 60%
12 | CCOc1cc(CC(=O)O)n(C)c1C(=O)c1ccc(Cl)cc1 [4-ClC6 H5; OC2 H5; CH3, 4-ethoxy-5-(p-chlorobenzoyl)-1-methylpyrrole-2-acetic acid] | – | – | – | – | – | – | – | – | – | inhibition in vivo at 20 mg/kg [1, 2]: 33%
13 | C=C(Cl)COc1cc(CC(=O)O)n(C)c1C(=O)c1ccc(Cl)cc1 [4-ClC6 H5; drawing 13; CH3] | 30 | – | – | – | – | – | – | – | – | inhibition in vivo at 20 mg/kg [1, 2]: 32%
14 | CSc1ccc(C(=O)c2c(C)cc(CC(=O)OCCNC(C)=O)n2C)n1C [Acetamidoethyl 1,4-dimethyl-5-(1-methyl-5-methylthiopyrrol-2-oyl)pyrrole-2-acetate] | – | 13 | 21 | 0.5 | 2/6 | 0 | 0/6 | 0 | 0/6 | activity in rat foot edema assay ([1]; footnote to edema table): also active; activity, footnote to GHLF table (gastric mucosa; footnote to GHLF table): also active
15 | Cc1cc(CC(=O)O)n(C)c1C(=O)c1ccc(Cl)cc1 [Zomepirac, reference compound] | – | – | – | – | – | – | – | – | – | Ave. No. of lesions per Animal (gastric mucosa; 3 mg/kg): 0.5; Animal with Lesion (gastric mucosa; 3 mg/kg): 4/6; Ave. No. of lesions per Animal (gastric mucosa; 6 mg/kg): 1.4; Animal with Lesion (gastric mucosa; 6 mg/kg): 3/6; Ave. No. of lesions per Animal (gastric mucosa; 9 mg/kg): 1.4; Animal with Lesion (gastric mucosa; 9 mg/kg): 6/6
16 | CSc1ccc(C(=O)c2c(C)cc(CC(=O)O)n2C)n1C [drawing 18] | – | 34 | 45 | – | – | – | – | – | – | –
17 | Cc1cc(CC(=O)O)n(C)c1C(=O)c1cccnc1 [drawing 19] | 34 | 47 | 33 | – | – | – | – | – | – | –
18 | Cc1cc(CC(=O)O)n(C)c1C(=O)c1cccnc1 [drawing 23] | – | – | – | 0 | 0/6 | – | – | – | – | –
19 | CSc1ccc(C(=O)c2c(C)cc(CC(=O)O)n2C)n1C [drawing 24] | – | – | – | – | – | 0 | 0/6 | 0 | 0/6 | Ave. No. of lesions per Animal (gastric mucosa; 60 mg/kg): 1.5; Animal with Lesion (gastric mucosa; 60 mg/kg): 4/6
